These results are taken from patent US20070122392A1, “Propagation of undifferentiated embryonic stem cells in hyaluronic acid hydrogel” (priority 2005, published 2007).

A short description of data set [1]: Hyaluronidase degradation of HA hydrogel and release of hESCs. The procedure: (§1) Cell-gel constructs were cultivated in hESC grwoth medium containing 100 ng/ml bFGF or MEF conditioned media as previously described^1 Briefly, hESCs growth medium was incubated on inactivated MEF for 24 hours and collected and filtrated. bFGF (4 ng/ml) was added before use. Constructs were incubated up to 40 days. To release encapsulated hESCs, HA constructs were incubated for 24 h in hESC growth medium containing 100, 500, 1000 or 2000 U/ml hyaluronidase (Sigma, St. Louis, Mo.). For re-culture, cells were collected, centrifuged, washed three times with PBS to remove any hydrogel residues, re-suspended in growth medium, and cultured on MEF coated dishes using standard methods^22,23. For EB formation, hESCs were cultivated in non-adherent Petri-dishes.

Data set [2] has as its system hESCs. Kind of data set: Long-term (24 hours) hyaluronidase treatment of hESC colonies. It is filed as cell-based, human. The settings on record: growth medium containing hyaluronidase at all concentrations. The procedure:
as §1

The subject of data set [3] is hESCs. The experiment in a line: Karyotyping analysis. It is filed as cell-based, human. The settings on record: hESCs on MEFs (H9 p22; H13 p25) treated with hyaluronidase 2000 U/ml for 24 h. The procedure: Karyotyping analysis. Cells were prepared and analyzed as previously described and recommended^30. Karyotyping analysis was performed by Dana Faber /Harvard Cancer Research Center, Cytogenetics Laboratory, Cambridge, Mass.

As for hyaluronidase, the “degradation of the HA hydrogel” value in data set [1] (2000 U/ml hyaluronidase in growth medium) is “complete degradation”. Further, the “state of hydrogel and hESCs” value in data set [1] (2000 U/ml hyaluronidase in growth medium, after 18 hr) is listed as “small particles of hydrogels remained that trapped hESCs”. The “release of hESC colonies from the hydrogel” value in data set [1] (2000 U/ml hyaluronidase in growth medium, after 24 hr) is “completely released”. In addition, the “degradation of HA hydrogels” value in data set [1] (hyaluronidase concentrations of <1000 U/ml, 24 hr) is recorded as “only partial degradation”. The “hESC colony morphology and viability” value in the data set with hESCs [2] is “preserved their normal morphology with no apparent loss of viability”. Moreover, in the data set with hESCs [3], the karyotype result is listed as “normal 46XX karyotyping”.
